Experiments:
[1] = tested on: A549; assay: Cytotoxicity against human A549 cells assessed as growth inhibition after 72 hrs by MTT assay; assay type: functional, cell-based; details: A549, 72 h
[2] = tested on: BXPC-3; assay: Cytotoxicity against human BxPC3 cells assessed as growth inhibition after 72 hrs by MTT assay; assay type: functional, cell-based; details: BXPC-3, 72 h
[3] = tested on: MCF7; assay: Cytotoxicity against human MCF7 cells assessed as growth inhibition after 72 hrs by MTT assay; assay type: functional, cell-based; details: MCF7, 72 h
[4] = tested on: MX1; assay: Cytotoxicity against taxol-resistant human MX1 cells assessed as growth inhibition after 72 hrs by MTT assay; assay type: functional, cell-based; details: MX1, 72 h
[5] = tested on: KB; assay: Cytotoxicity against human KB cells assessed as growth inhibition after 72 hrs by MTT assay; assay type: functional, cell-based
[6] = tested on: KB; assay: Cytotoxicity against vincristine-resistant human KB cells assessed as growth inhibition after 72 hrs by MTT assay; assay type: functional, cell-based
[7] = tested on: MX1; assay: Cytotoxicity against human MX1 cells assessed as growth inhibition after 72 hrs by MTT assay; assay type: functional, cell-based; details: MX1, 72 h
[8] = tested on: HT-29; assay: Cytotoxicity against human HT-29 cells assessed as growth inhibition after 72 hrs by MTT assay; assay type: functional, cell-based; details: HT-29, 72 h
[9] = tested on: HepG2; assay: Cytotoxicity against human HepG2 cells assessed as growth inhibition after 72 hrs by MTT assay; assay type: functional, cell-based; details: HepG2, 72 h
[10] = tested on: Mus musculus; assay: Toxicity in KM mouse allografted with mouse H22 cells assessed as body weight at 0.25 mg/kg, ip administered on day 1 and 4 measured on day 8 (reference value: 30 +/- 3.24 g); assay type: organism-based; design: dose 0.25 mg/kg, route intraperitoneal; details: in vivo
[11] = tested on: H22; assay: Antitumor activity against mouse H22 cells allografted in KM mouse assessed as tumor growth inhibition at 0.25 mg/kg, ip administered on day 1 and 4 measured on day 8 relative to control; assay type: functional; details: route intraperitoneal, read-out: TGI
[12] = tested on: Mus musculus; assay: Toxicity in KM mouse allografted with mouse H22 cells assessed as body weight at 0.5 mg/kg, ip administered on day 1 and 4 measured on day 8 (reference value: 30 +/- 3.24 g); assay type: organism-based; design: dose 0.5 mg/kg, route intraperitoneal; details: in vivo
[13] = tested on: H22; assay: Antitumor activity against mouse H22 cells allografted in KM mouse assessed as tumor growth inhibition at 0.5 mg/kg, ip administered on day 1 and 4 measured on day 8 relative to control; assay type: functional; details: route intraperitoneal, read-out: TGI

COC(=O)n1cnc2c(-c3ocnc3-c3cc(OC)c(OC)c(OC)c3)ccc(OC)c21
IC50 [1]: 3 nM | IC50 [2]: 45 nM | IC50 [3]: 47 nM | IC50 [4]: 4860 nM | IC50 [5]: 107 nM | IC50 [6]: 53 nM | IC50 [7]: 241 nM | IC50 [8]: 11 nM | IC50 [9]: 25 nM

COc1cc(-c2ncoc2-c2ccc(OC)c3c2ncn3CC#N)cc(OC)c1OC
IC50 [1]: 2600 nM | IC50 [2]: 2190 nM | IC50 [3]: 89 nM | IC50 [8]: 190 nM | IC50 [9]: 77 nM

COc1cc(-c2ncoc2-c2ccc(OC)c3c2ncn3CC(=O)O)cc(OC)c1OC
IC50 [1]: > 5000 nM | IC50 [2]: > 5000 nM | IC50 [3]: > 5000 nM | IC50 [8]: > 5000 nM | IC50 [9]: > 5000 nM

COc1ccc(/C=C\c2cc(OC)c(OC)c(OC)c2)cc1O [COMBRETASTATIN A4]
IC50 [2]: < 50 nM | IC50 [3]: 220 nM | IC50 [4]: 71 nM | IC50 [5]: 8 nM | IC50 [6]: 6 nM | IC50 [7]: 52 nM

COC(=O)c1sccc1S(=O)(=O)n1cnc2c(-c3ocnc3-c3cc(OC)c(OC)c(OC)c3)ccc(OC)c21
IC50 [1]: 2510 nM | IC50 [2]: 941 nM | IC50 [3]: 435 nM | IC50 [8]: 163 nM | IC50 [9]: 134 nM

COc1cc(-c2ncoc2-c2ccc(OC)c3ncn(C)c23)cc(OC)c1OC
IC50 [1]: 37 nM | IC50 [2]: 220 nM | IC50 [3]: 41 nM | IC50 [8]: 52 nM | IC50 [9]: 200 nM

CC[C@]1(O)C[C@H]2CN(CCc3c([nH]c4ccccc34)[C@@](C(=O)OC)(c3cc4c(cc3OC)N(C=O)[C@H]3[C@@](O)(C(=O)OC)[C@H](OC(C)=O)[C@]5(CC)C=CCN6CC[C@]43[C@@H]65)C2)C1 [VINCRISTINE]
IC50 [1]: 53 nM | IC50 [2]: > 500 nM | IC50 [3]: 13 nM | Activity [10]: 24.6 g | IC50 [4]: 75 nM | inhibition in vivo at 0.25 mg/kg [11]: 31% | IC50 [5]: 139 nM | IC50 [6]: > 100000 nM | IC50 [7]: 12 nM | Activity [12]: 25.5 g | IC50 [8]: 12 nM | inhibition in vivo at 0.5 mg/kg [13]: 61% | IC50 [9]: 210 nM

COc1cc(-c2ncoc2-c2ccc(OC)c3c2ncn3CCCO)cc(OC)c1OC
IC50 [3]: 2110 nM | IC50 [4]: 21100 nM | IC50 [5]: 406 nM | IC50 [6]: > 10000 nM | IC50 [7]: > 10000 nM | IC50 [8]: 2220 nM | IC50 [9]: 410 nM

COC(=O)n1cnc2c(OC)ccc(-c3ocnc3-c3cc(OC)c(OC)c(OC)c3)c21
IC50 [1]: 3.8 nM | IC50 [2]: 42 nM | IC50 [3]: 17 nM | IC50 [4]: 565 nM | IC50 [5]: 27 nM | IC50 [6]: 70 nM | IC50 [7]: 393 nM | IC50 [8]: 11 nM | IC50 [9]: 20 nM

COc1cc(-c2ncoc2-c2ccc(OC)c3ncn(CC(=O)O)c23)cc(OC)c1OC
IC50 [1]: > 5000 nM | IC50 [2]: > 5000 nM | IC50 [3]: > 5000 nM | IC50 [8]: > 5000 nM | IC50 [9]: > 5000 nM

From ChEMBL document CHEMBL2424644, “Synthesis and antiproliferative evaluation of novel benzoimidazole-contained oxazole-bridged analogs of combretastatin A-4” (Eur J Med Chem, 2013)
